Measured values reported in article PMC5860131, “Identification of natural products as novel ligands for the human 5-HT2C receptor” (Biophysics Reports, 2018).

Tests used:
5-HT2C receptor [1] = target: T1, 5-HT2C receptor (Homo sapiens, UniProt P28335, DEL255-298/G251D/H250E/H252N/INS299[…]/L248D/M247A/M300L/T253W); assay type: binding; details: CPM assay, comparing to apo-protein
T1 construct: the N- and C-terminals were truncated by 39 and 65 residues, respectively; FLAG (N); PreScission protease site + 10× His (C); made in house; host or cells: Spodoptera frugiperda (Sf9), baculovirus
T1 sequence (P28335 with tags, fused parts or gaps with the stated changes limits assumed): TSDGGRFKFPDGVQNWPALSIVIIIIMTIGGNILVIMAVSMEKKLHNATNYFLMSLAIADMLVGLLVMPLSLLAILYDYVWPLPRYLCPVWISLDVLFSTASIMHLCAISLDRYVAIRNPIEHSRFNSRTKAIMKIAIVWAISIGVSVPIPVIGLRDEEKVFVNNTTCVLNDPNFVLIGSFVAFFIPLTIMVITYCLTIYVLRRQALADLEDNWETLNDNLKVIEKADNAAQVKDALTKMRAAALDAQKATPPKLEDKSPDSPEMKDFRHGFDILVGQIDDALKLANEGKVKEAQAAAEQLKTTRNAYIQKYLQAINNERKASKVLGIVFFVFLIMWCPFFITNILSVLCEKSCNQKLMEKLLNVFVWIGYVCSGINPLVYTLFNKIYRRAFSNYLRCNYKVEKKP

5-HT2A receptor = target: T2, 5-HT2A receptor (Homo sapiens, UniProt P28223); assay: Ca2+ mobilization assay (Fluo-4, FLIPR), HEK 293T cells stably transfected with 5-HT2A; assay type: cell-based; details: agonist mode, up to 30,000 nmol/L
T2 construct: expressed in transfected cells; host or cells: HEK 293T, stably transfected
T2 sequence (P28223 whole entry): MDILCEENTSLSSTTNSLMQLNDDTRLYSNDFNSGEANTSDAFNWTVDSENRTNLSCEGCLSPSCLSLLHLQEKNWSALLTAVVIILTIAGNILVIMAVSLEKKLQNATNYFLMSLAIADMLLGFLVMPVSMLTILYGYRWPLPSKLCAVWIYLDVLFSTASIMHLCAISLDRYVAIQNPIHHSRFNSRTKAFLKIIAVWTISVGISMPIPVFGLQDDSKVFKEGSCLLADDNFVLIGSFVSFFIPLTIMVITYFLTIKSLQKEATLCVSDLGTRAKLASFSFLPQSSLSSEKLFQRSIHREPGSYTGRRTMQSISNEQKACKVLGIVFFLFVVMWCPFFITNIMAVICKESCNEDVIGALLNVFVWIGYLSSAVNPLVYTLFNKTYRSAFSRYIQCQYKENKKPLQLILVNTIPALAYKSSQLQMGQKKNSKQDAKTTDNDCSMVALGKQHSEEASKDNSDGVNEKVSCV
Description: (§1) The 5-HT2C receptor mainly couples to Gαq proteins. The activated 5-HT2C receptor transmits the signals from the extracellular to the intercellular side using DAG/IP3 (diacyl glycerol/inositol 1,4,5-trisphosphate) as its second massagers (Hannon and Hoyer [2008]). IP3 stimulates the endoplasmic reticulum to release calcium ions into the cytoplasm, which causes the increase of calcium concentration in cytosol. Therefore, calcium mobilization assay is commonly applied to understand how unknown small molecule ligands of 5-HT2C receptor modulate cellular signal transductions. In this case, Fluo-4 Direct dye was used as a fluorescence indicator to detect calcium flux in G protein-coupled receptor expressed cells. The fold of maximum response over average of basal reading is plotted against compound concentration to determine the potency of the compounds (Fig. 3). […]. […] After the dye loaded, cells were placed in a FLIPR^TETRA fluorescence imaging plate reader (Molecular Devices); drug dilutions, prepared at 3× final concentration in FLIPR buffer and aliquotted into 384-well plates, were also added to the FLIPR^TETRA. The fluidics module and plate reader of the FLIPR^TETRA were programmed to read baseline fluorescence for 10 s (1 read/s), then to add 10 μl of drug/well and to read for 6 min (1 read/s). […]

5-HT2B receptor = target: T3, 5-HT2B receptor (Homo sapiens, UniProt P41595); assay: Ca2+ mobilization assay (Fluo-4, FLIPR), HEK 293T cells stably transfected with 5-HT2B; assay type: cell-based; details: agonist mode, up to 30,000 nmol/L
T3 construct: expressed in transfected cells; host or cells: HEK 293T, stably transfected
T3 sequence (P41595 whole entry): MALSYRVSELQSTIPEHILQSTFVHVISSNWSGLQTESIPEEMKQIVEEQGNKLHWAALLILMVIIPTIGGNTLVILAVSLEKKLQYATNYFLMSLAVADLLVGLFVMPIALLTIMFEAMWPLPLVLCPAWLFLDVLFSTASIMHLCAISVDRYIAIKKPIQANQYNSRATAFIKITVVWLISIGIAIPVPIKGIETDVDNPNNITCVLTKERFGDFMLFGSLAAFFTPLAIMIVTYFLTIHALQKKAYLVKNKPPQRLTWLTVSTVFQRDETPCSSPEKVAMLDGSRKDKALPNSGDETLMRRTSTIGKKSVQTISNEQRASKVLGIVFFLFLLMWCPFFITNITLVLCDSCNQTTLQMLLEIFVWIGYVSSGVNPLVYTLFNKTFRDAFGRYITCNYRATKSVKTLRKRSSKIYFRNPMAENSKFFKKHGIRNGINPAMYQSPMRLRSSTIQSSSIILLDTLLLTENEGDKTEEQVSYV
Description: as §1

5-HT2C receptor [2] = target: T4, 5-HT2C receptor (Homo sapiens, UniProt P28335); assay: Ca2+ mobilization assay (Fluo-4, FLIPR), HEK 293T cells stably transfected with 5-HT2C; assay type: cell-based
T4 construct: expressed in transfected cells; host or cells: HEK 293T, stably transfected
T4 sequence (P28335 33-458): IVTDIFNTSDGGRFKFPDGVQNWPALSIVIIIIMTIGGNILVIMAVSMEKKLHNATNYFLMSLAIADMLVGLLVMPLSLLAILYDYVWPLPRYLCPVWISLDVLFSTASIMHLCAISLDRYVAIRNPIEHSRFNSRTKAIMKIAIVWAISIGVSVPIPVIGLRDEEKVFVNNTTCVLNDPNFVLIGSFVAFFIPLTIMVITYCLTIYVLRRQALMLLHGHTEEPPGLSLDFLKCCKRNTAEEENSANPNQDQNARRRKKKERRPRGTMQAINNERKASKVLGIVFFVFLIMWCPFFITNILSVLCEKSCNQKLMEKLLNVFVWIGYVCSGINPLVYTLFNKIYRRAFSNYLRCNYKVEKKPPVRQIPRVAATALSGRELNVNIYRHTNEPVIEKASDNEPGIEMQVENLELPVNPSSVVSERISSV
Description: The 5-HT2C receptor mainly couples to Gαq proteins. The activated 5-HT2C receptor transmits the signals from the extracellular to the intercellular side using DAG/IP3 (diacyl glycerol/inositol 1,4,5-trisphosphate) as its second massagers (Hannon and Hoyer [2008]). IP3 stimulates the endoplasmic reticulum to release calcium ions into the cytoplasm, which causes the increase of calcium concentration in cytosol. Therefore, calcium mobilization assay is commonly applied to understand how unknown small molecule ligands of 5-HT2C receptor modulate cellular signal transductions. In this case, Fluo-4 Direct dye was used as a fluorescence indicator to detect calcium flux in G protein-coupled receptor expressed cells. The fold of maximum response over average of basal reading is plotted against compound concentration to determine the potency of the compounds (Fig. 3). […]. HEK 293T cells stably transfected with 5-HT2A/2B/2C receptor were seeded in 384-well plates at a density of 15,000 cells/well in DMEM containing 1% dialyzed FBS 8 h before the calcium flux assay. After removing medium, cells were then incubated (20 μl/well) for 1 h at 37 °C with Fluo-4 Direct dye (Invitrogen) reconstituted in FLIPR buffer (1× HBSS, 2.5 mmol/L probenecid, and 20 mmol/L HEPES, pH 7.4). After the dye loaded, cells were placed in a FLIPR^TETRA fluorescence imaging plate reader (Molecular Devices); drug dilutions, prepared at 3× final concentration in FLIPR buffer and aliquotted into 384-well plates, were also added to the FLIPR^TETRA. The fluidics module and plate reader of the FLIPR^TETRA were programmed to read baseline fluorescence for 10 s (1 read/s), then to add 10 μl of drug/well and to read for 6 min (1 read/s). Fluorescence in each well was normalized to the average of the first 10 reads (i.e., baseline fluorescence). Then, the maximum-fold increase, which occurred within 60 s after drug addition, over baseline fluorescence elicited by vehicle or drug was determined. […]

5-HT2C receptor [3] = target: T1, 5-HT2C receptor; assay type: binding
[4] = system: cortical pyramidal neurons; assay: Whole-cell patch clamp recording of spontaneous synaptic current (SPSC) in brain slices; assay type: cell-based; details: 10 μmol/L; mouse brain slices
Method: 5-HT receptors play important roles in central and peripheral nervous systems. Malfunctions of these receptors have been linked to many neural disorders such as depression and psychosis. The effect of (–)-crebanine on changes in 5-HT induced synaptic transmission was evaluated by electrophysiological recording of mouse brain slices (Jang et al. [2012]). The spontaneous synaptic current (SPSC) of cortical pyramidal neurons was recorded in whole cell mode.
Cortical slices from ICR mouse of both genders (15–21 days) were prepared for electrophysiological recording. In brief, the animals were decapitated and brains were placed in cold sucrose artificial cerebrospinal fluid (sucrose-ASCF, in mmol/L: sucrose 213, KCl 2.5, NaH2PO4 1.25, NaHCO3 26, D-glucose 10, MgSO4 2, CaCl2 2, pH 7.4, 0–4 °C, saturated with 95% O2 and 5% CO2). The brains were cut into 280 or 300 μm slices with a vibratome (Leica VT1200S, Germany); slices were then incubated with ACSF (in mmol/L: NaCl 126, KCl 2.5, NaH2PO4 1.25, NaHCO3 26, D-glucose 25, MgSO4 2, CaCl2 2, pH 7.4, saturated with 95% O2 and 5% CO2) at room temperature for 1 h.
A whole-cell patch clamp technique was used. […] Activity of cortical pyramidal neurons was recorded using an amplifier (HEKA EPC 10 USB, Germany) in the voltage clamp mode. […]

In the case of `COc1cc2cc3c4c(cc(OC)c(OC)c4c2cc1OC)CCN3C` [Compound 4, didehydroglaucine], the “thermal shift value (∆Tm)” value (5-HT2C receptor [1]) is reported as less than 1.00 °C.

With `COc1cc2c(cc1OC)-c1c3c(cc4c1[C@@H](C2)N(C)CC4)OCO3` [Compound 2, (–)-dicentrine] the “thermal shift value (∆Tm)” value (5-HT2C receptor [1]) was less than 1.00 °C.

In the case of `COc1ccc2c(c1O)-c1c(OC)c(OC)cc3c1[C@H](C2)N(C)CC3` [Compound 5, (+)-isocorydine], the receptor activation (5-HT2A receptor) is reported as “inactive”, the receptor activation (5-HT2B receptor) is reported as “inactive” and the EC50 (5-HT2C receptor [2]) is reported as 2080 nM. For the same compound, the Emax (5-HT2C receptor [2]; HEK-293T) was 16.6%.

For `COc1ccc2c(c1O)-c1c(O)c(OC)cc3c1[C@H](C2)[N+](C)(C)CC3` [Compound 3, (+)-magnoflorine], the “thermal shift value (∆Tm)” value (5-HT2C receptor [1]) was less than 1.00 °C.

With `Cc1nc2sccn2c(=O)c1CCN1CCC(=C(c2ccc(F)cc2)c2ccc(F)cc2)CC1` [Ritanserin, ritanserin, reference compound] the S/C (5-HT2C receptor [3]) was 8.39 ± 1.80 and the “affinity (in words)” value (5-HT2C receptor [3]) was “high nmol/L range”.

With `NCCc1c[nH]c2ccc(O)cc12` [Compound 5-HT, 5-hydroxytryptamine, reference compound] the “effect on SPSC” value [4] was “amplified”.
